{
  "source": "patent US11596626B2",
  "about": "“Compound for use against pathogenic Neisseria and Haemophilus species and Moraxella catarrhalis” (priority 2017, dated 2023)",
  "key": {"Commensal Neisseria": {"system": "Commensal Neisseria", "test": "Growth inhibition by area under the growth curve relative to solvent", "type": "cell-based", "conditions": "5-50 μM, FIG. 5", "experimental": "(§1) Before every experiment, bacteria were pre-cultured in 5 ml liquid medium for at least 2 hours then harvested and resuspended in PBS (phosphate buffered saline). Optical density (OD) was determined and a volume equal to an OD of 0.2 was inoculated into 5 ml of the respective medium. NQNO was added at the indicated amounts (5-50 μM). DMSO level was adjusted to 1% of final concentration. Samples were incubated for either 10.5 hours, until they reached stationary phase (three measured values in stationary phase) or until they reached an OD of 2.5. Optical density was determined every 0.5 h.\nGrowth experiments with the compounds represented by the Formulas (4) to (7) were conducted against various bacteria, including clinical isolates of N. gonorrhoeae including high priority 3rd generation cephalosporin/fluoroquinolone-resistant strains, strains isolated from disseminated disease settings, and commensal Neisseria and other commensal bacteria and evaluated (FIGS. 5 and 11). Growth of the indicated bacteria was measured as described in Example 1. Growth inhibition was quantified by measuring the “area under the curve” in the presence of the indicated concentrations of the respective compound (5-50 μM) relative to growth in the presence of the solvent only. Black areas indicate growth inhibition with <30% growth compared to control."}, "[1]": {"test": "Stability in deuterated methanol by proton NMR", "type": "physicochemical", "conditions": "25 mM in deuterated methanol, 25° C. or 37° C., 28 days", "experimental": "Two samples of NQNO were dissolved in deuterated methanol (CD3OD) to reach a final concentration of 25 mM. Samples were kept at 25° C. or 37° C. for 28 days and proton NMR spectra were measured with the same acquisition parameters every week and the spectra compared with the ones from day 0."}, "Neisseria macacae": {"system": "Neisseria macacae", "test": "Growth curves in liquid culture (optical density) vs DMSO control", "type": "cell-based", "conditions": "5-50 μM, FIG. 3", "experimental": "(§2) Growth experiments with NQNO were conducted against Neisseria gonorrhoeae strain MS11 (Edwards, M., et al., Antigenic analysis of gonococcal pili using monoclonal antibodies, J Exp Med, 1984. 160(6): p. 1782-91) and a multidrug-resistant N. gonorrhoeae isolate from Slovenia (Unemo M, Golparian O, Potočnik M, Jeverica S. Treatment failure of pharyngeal gonorrhoea with internationally recommended first-line ceftriaxone verified in Slovenia, September 2011. Euro Surveill. 2012; 17(25):pii=20200), Neisseria macacae, and Lactobacillus brevis. The bacteria were inoculated in GC (Difco™ GC medium Ref. 228950, BD Becton Dickinson) and PPM broth (15 g/L Proteon Pepton, 1 g/L soluble starch, 5 g/L NaCl, 4 g/L KH2PO4, 1 g/L K2HPO4, pH 7.5) (Neisseriae) or TSB (BBL™ Trypticase Soy Broth Ref 211768, BD Becton Dickinson) (Lactobacillus) supplemented with solvent (DMSO) or the indicated concentrations of NQNO (5-50 04) and their growth at 37° C. was monitored over the course of 10 h by optical density readings in 30 minute intervals.\n(§3) Neisseria strains were cultured in PPM medium (15 g/l Proteon Pepton, 1 g/l soluble starch, 5 g/l NaCl, 4 g/l KH2PO4, 1 g/l K2HPO4, pH 7.5) for liquid culture and on GC plates (BD Difco™ GC Medium Base) supplemented with 1% vitamin mix (100 g/l glucose, 10 WI glutamine, 26 g/l L-cystein, 100 mg/l carboxylase, 250 mg/l NAD, 500 μl Fe(NO3)3, 150 mg/l arginine, 3 mg/l thiamine-HCl, 10 mg/l vitamine B12, 13 mg/I p-amino benzoic acid, 1.1 g/l L-cystin, 1 g/l adenine; 500 mg/l uracil, 30 mg/I guanine). […]\nas §1, with “NQNO was added at the indicated amounts (5-50 μM). DMSO level was adjusted to 1% of final concentration.” left out"}, "[2]": {"system": "Neisseria gonorrhoeae strain MS11", "test": "Growth curves in liquid culture (optical density) vs DMSO control", "type": "cell-based", "experimental": "as §2, §3\nas §1, with “NQNO was added at the indicated amounts (5-50 μM). DMSO level was adjusted to 1% of final concentration.” left out"}, "N. gonorrhoeae": {"system": "N. gonorrhoeae", "test": "Vaginal colonization of CEAtg female mice, re-isolation of gonococci by swab", "type": "in vivo, Neisseria gonorrhoeae", "experimental": "By using genetically modified mice (CEA-transgenic; CEAtg mice), which express a human receptor for the gonococcal Opa-adhesin on their mucosal surface, it is possible to study the initial colonization of the upper genital tract by N. gonorrhoeae and to re-isolate these pathogens after intra-vaginal challenge (FIG. 7). 6 to 8 week old, female wildtype (black) or CEA-transgenic (CEAtg, red) mice were infected with N. gonorrhoeae. 2 h after infection, the animals were treated with 20 μl buffer containing solvent (DMSO) or 50 μM NQNO (Compound represented by the Formula (5)). 20 h later, vaginal swaps were taken and plated on selective agar. Each dot refers to bacteria isolated from an individual animal (n≥5) (cf. FIG. 7). […]\nIn a further experiment, experimental vaginal infection of female mice with N. gonorrhoeae was performed as previously described in the literature (P. Muenzner, V. Bachmann, J. Hentschel, W. Zimmermann, C. R. Hauck, Human-restricted bacterial pathogens block shedding of epithelial cells by stimulating integrin activation. Science 329, 1197-1201 (2010)). […] Serial dilutions of re-isolated bacteria were plated on GC agar containing chloramphenicol (10 μg/ml) and erythromycin (7 μg/ml) and the colonies were counted after 20 h of incubation at 37° C., 5% CO2."}},
  "note": "Entries after “also recorded” stand apart in the source; their conditions may differ.",
  "data": [
    {"smiles": "CCCCCCCCCc1cc(=O)c2ccccc2n1O", "note": "[NQNO, 1-Hydroxy-2-nonylquinolin-4(1H)-one]", "values": [
      {"measurement": "Growth inhibition (area under the curve relative to solvent)", "setting": "Commensal Neisseria", "result": "not compromised"},
      {"measurement": "Stability in solvent", "setting": "[1]", "result": "stable at 37 °C in deuterated methanol for at least one month"},
      {"measurement": "Effect on growth", "setting": "Neisseria macacae", "result": "did not compromise the growth"},
      {"measurement": "Concentration leading to complete abrogation of gonococcal growth in vitro", "setting": "[2]; N. gonorrhoeae MS11, 37° C., growth monitored over 10 h, FIG. 1", "result": "≤ 5", "unit": "µM"},
      {"measurement": "Concentration leading to complete abrogation of gonococcal growth in vitro", "setting": "[2]; N. gonorrhoeae MS11, mass concentration given for 5 μM", "result": "< 1.4", "unit": "µg/mL"},
      {"measurement": "Number of re-isolated gonococci (vaginal colonization)", "setting": "N. gonorrhoeae; CEAtg female mice, 20 μl of 50 μM topical 2 h after infection, swabs 20 h later, FIG. 7", "result": "significantly (***; p<0.001) reduces the number of re-isolated gonococci; also recorded: completely blocks vaginal colonization"},
      {"measurement": "Re-isolated gonococci from the genital tract", "setting": "N. gonorrhoeae; CEAtg mice, 10 μl of 25 μM or 50 μM intravaginally 1 h after infection, swabs 24 h later, FIG. 15", "result": "hardly any gonococci could be re-isolated"}
    ]}
  ]
}
